For one experiment, the target named is T1, RET-CCDC6 (Homo sapiens, UniProt P07949).
T1 construct: CCDC6 (fusion partner, UniProt Q16204); purchased Reaction Biology Corporation (contract assay; enzyme is the CRO's); the other entry of the earlier key: CCDC6 (Q16204, Coiled-coil domain-containing protein 6)
T1 sequence (P07949 with tags, fused parts or gaps): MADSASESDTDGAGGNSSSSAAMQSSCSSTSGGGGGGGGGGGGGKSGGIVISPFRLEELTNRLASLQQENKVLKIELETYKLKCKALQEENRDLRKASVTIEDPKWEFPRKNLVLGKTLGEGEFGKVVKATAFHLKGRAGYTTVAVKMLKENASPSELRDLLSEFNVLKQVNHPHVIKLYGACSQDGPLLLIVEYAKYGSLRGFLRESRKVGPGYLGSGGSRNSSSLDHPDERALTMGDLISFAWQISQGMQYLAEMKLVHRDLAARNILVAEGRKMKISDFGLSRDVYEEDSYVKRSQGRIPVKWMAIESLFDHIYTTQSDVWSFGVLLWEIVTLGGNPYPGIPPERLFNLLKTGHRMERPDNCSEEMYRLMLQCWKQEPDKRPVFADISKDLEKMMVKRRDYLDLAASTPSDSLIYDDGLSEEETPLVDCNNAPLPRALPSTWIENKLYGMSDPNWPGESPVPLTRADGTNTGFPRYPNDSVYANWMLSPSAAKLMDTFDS
Briefly: Biochemical IC50 of RET-CCDC6 fusion (33P-ATP filter binding, Reaction Biology). As to the method:
(§1) For detailed test methods, the following references were referred to: T. Anastassiadis, S. W. Deacon, K. Devarajan, H. Ma, J. R. Peterson. […] Nat. Biotech.
(§2) The compounds of the present invention were dissolved in dimethyl sulfoxide (DMSO) to prepare 10 mM stock solutions, and ten different doses by 3-fold serial dilutions from 10 mM were prepared. The ATP concentration used in this determination was 1 μM.
(§3) Base reaction buffer: 20 mM 4-(2-hydroxyethyl)-1-piperazineethanesulfonic acid buffer (Hepes, pH 7.5), 10 mM magnesium chloride, 1 mM ethylene glycol-bis(3-aminoethylether)-N,N,N′,N′-tetraacetic acid (EGTA), 0.02% Brij™-35 (purchased from ThermoFisher Scientific), 0.02 mg/mL bovine serum albumin (BSA), 0.1 mM sodium orthovanadate (Na3VO4), 2 mM dithiothreitol (DTT), 1% dimethyl sulfoxide (DMSO).
(§4) a) adding the corresponding substrate to a freshly prepared base reaction buffer;
(§5) b) adding necessary cofactors;
(§6) c) adding kinase and shake gently;
(§7) d) adding the compounds in DMSO using Acoustic technology (Echo550; nanoliter range) and incubating at room temperature for 20 minutes;
(§8) e) adding 33P-ATP (specific activity 10 μCi/μL) to initiate the reaction;
(§9) f) incubating the kinase reaction at room temperature for 2 hours;
(§10) g) spotting the resultant of reaction on P81 ion exchange paper (purchased from Whatman);
(§11) h) detecting kinase activity by filter binding assay.
(§12) IC50 values were generated using Prism (GraphPad software).

A further experiment deals with T2, RET(V804M) mutant (Homo sapiens, UniProt P07949, V804M).
T2 construct: purchased Reaction Biology Corporation (contract assay; enzyme is the CRO's)
T2 sequence (P07949 29-1114 V804M): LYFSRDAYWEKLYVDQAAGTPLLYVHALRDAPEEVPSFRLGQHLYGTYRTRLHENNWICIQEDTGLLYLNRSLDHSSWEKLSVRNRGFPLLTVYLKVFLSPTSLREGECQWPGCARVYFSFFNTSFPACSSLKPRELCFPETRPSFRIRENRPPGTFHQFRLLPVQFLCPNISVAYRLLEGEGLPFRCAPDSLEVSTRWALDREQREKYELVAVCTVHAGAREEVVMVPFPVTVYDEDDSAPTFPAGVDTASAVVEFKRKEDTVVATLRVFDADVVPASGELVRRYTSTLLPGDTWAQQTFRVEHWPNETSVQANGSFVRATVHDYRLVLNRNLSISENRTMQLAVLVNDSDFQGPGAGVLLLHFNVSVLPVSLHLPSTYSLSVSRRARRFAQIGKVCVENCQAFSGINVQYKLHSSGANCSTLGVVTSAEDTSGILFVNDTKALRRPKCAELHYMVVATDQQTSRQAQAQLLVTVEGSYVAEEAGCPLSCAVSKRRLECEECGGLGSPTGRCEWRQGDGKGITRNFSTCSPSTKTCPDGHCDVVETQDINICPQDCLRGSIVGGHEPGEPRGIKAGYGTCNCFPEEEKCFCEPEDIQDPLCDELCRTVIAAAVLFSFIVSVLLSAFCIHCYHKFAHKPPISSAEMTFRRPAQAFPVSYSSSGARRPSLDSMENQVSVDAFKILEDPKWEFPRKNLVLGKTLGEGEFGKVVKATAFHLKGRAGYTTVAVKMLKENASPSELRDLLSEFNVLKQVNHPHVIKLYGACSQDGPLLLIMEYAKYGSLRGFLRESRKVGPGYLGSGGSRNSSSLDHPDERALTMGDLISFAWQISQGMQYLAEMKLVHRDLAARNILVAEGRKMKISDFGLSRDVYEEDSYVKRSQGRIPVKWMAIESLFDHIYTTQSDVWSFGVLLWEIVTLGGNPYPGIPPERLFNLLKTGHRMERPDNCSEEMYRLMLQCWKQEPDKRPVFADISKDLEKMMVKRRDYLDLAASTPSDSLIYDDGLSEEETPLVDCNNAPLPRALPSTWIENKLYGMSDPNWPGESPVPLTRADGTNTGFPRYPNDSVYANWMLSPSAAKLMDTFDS
Briefly: Biochemical IC50 of RET(V804M) mutant (33P-ATP filter binding, Reaction Biology). As to the method: as §1, §2, §3, §4, §5, §6, §7, §8, §9, §10, §11, §12

The target in another experiment is T3, wild-type RET kinase (Homo sapiens, UniProt P07949).
T3 construct: purchased Reaction Biology Corporation (contract assay; enzyme is the CRO's)
T3 sequence (P07949 29-1114): as the sequence (P07949 29-1114 V804M) above, with M776V counted along it
Briefly: Biochemical IC50 of wild-type RET kinase (33P-ATP filter binding, Reaction Biology). As to the method:
as §1, §2, §3, §4, §5, §6, §7, §8, §9, §10, §11, §12

For experiment [1], the system named is Phospho-ERK in LC-2/ad lung cancer cells. In words: Phospho-ERK ELISA in LC-2/ad tumor cells. The class given is cell-based. To be noted: Homo sapiens, 1 h, read-out: Cell IC50 Phospho-ERK. As to the method: (§13) The compounds of the present invention were dissolved in dimethyl sulfoxide (DMSO) to prepare 10 mM stock solutions, and ten different doses by 3-fold serial dilutions from 10 mM were prepared. An ELISA assay format was used in the test.
(§14) PathScan® Phospho-Ret (panTyr) and p44/42 MAPK (Thr202/Tyr204) (ERK) Sandwich ELISA kits were purchased from Cell Signaling Technology. The LC-2/ad lung cancer cell line was purchased from Sigma-Aldrich. […] The medium was supplemented with 10% fetal bovine serum (FBS), 100 μg/mL penicillin and 100 μg/mL streptomycin, and the cultures were maintained at 37° C. in a humidified atmosphere of 5% CO2 and 95% air.
(§15) a) 1.5×10^4 LC-2/ad cells were seeded in the wells of a 96-well tissue culture plate overnight;
(§16) b) the cells were treated with DMSO or the test compound in DMSO (the initial concentration was 1 μM, and ten doses by 3-fold serial dilutions) for one hour;
(§17) The plate was shaken for 1 minute, then placed on a rocking platform at 4° C. for 30 minutes;
(§18) d) 80 μL/well of lysate was added to the appropriate wells of each ELISA plate and the plate was incubated overnight at 4° C. on a rocking platform;
(§19) e) the contents of the plate were discarded into a container and the wells were washed for four times with 200 μL/well of 1×ELISA wash buffer;
(§20) f) 100 μL of reconstituted Phospho-Ret(panTyr) or Phospho-ERK(Thr202/Tyr204; p44/42MAPK) detection antibody was added to the appropriate wells and the plate was incubated at 37° C. for 1 hour;
(§21) g) the washing procedure was repeated and 100 μL of reconstituted HRP-linked secondary antibody was added to each well of two plates and the plates were incubated at 37° C. for 30 minutes;
(§22) h) the washing procedure was repeated, 100 μL of TMB substrate was added to each well, and the plates were incubated at 37° C. for 45 minutes;
(§23) i) 100 μL of STOP solution was added to each well and the plate was gently shaken for a few seconds.

Experiment [2] relates to Phospho-RET in LC-2/ad lung cancer cells. Briefly: Phospho-RET ELISA in LC-2/ad tumor cells. The class given is cell-based. To be noted: Homo sapiens, LC-2-ad, 1 h, read-out: Cell IC50 Phospho-RET. As to the method: as §13, §14, §15, §16, §17, §18, §19, §20, §21, §22, §23
Setting [3] is: RET-CCDC6 fusion, ATP 1 μM, 33P-ATP filter binding, read-out: Biochemical IC50 RET-CCDC6.
Setting [4] is: RET(V804M) mutant, ATP 1 μM, 33P-ATP filter binding, read-out: Biochemical IC50 RET (V804M).
Where [5] appears, read: wild-type RET kinase, ATP 1 μM, 33P-ATP filter binding, read-out: Biochemical IC50 RET.

Consider eight molecules from patent US20220380366A1, “HETEROCYCLIC SULFOXIMINE COMPOUND AND INTERMEDIATE THEREOF, PREPARATION METHOD THEREFOR, AND APPLICATION THEREOF” (priority 2019, published 2022).

pIC50: −log10 of the molar value. Like-named read-outs stand apart in the source and are kept apart here.

Take `CC(C)CN=S1(=O)CCN(c2ccc(-c3cc(-c4cnn(C)c4)cn4ncc(C#N)c34)cn2)CC1` [Ex. 13, 4-(6-(1-(isobutylimino)-1-oxothiomorpholinyl)pyridin-3-yl)-6-(1-methyl-1H-pyrazole-4-yl)pyrazolo[1,5-a]pyridine-3-carbonitrile]: the pIC50 on RET-CCDC6 is 9.38; at RET(V804M) mutant it was 8.29; on wild-type RET kinase, 9.05; in experiment [1], 8.18; in experiment [2], 7.79.
In the case of `COc1ccc(CN=S2(=O)CCN(c3ccc(-c4cc(-c5cnn(C)c5)cn5ncc(C#N)c45)cn3)CC2)cn1` [Ex. 14, 4-(6-(1-(((6-methoxypyridin-3-yl)methyl)imino)-1-oxothiomorpholinyl)pyridin-3-yl)-6-(1-methyl-1H-pyrazole-4-yl)pyrazolo[1,5-a]pyridine-3-carbonitrile], the pIC50 on RET-CCDC6 was 9.47; on RET(V804M) mutant it was 8.28; on wild-type RET kinase it was 9.18; in experiment [1], 7.08; in experiment [2], 7.94.
Take `COc1ccc(N=S2(=O)CCN(c3ccc(-c4cc(-c5cnn(C)c5)cn5ncc(C#N)c45)cn3)CC2)cn1` [Ex. 15, 4-(6-(1-((6-methoxypyridin-3-yl)imino)-1-oxothiomorpholinyl)pyridin-3-yl)-6-(1-methyl-1H-pyrazole-4-yl)pyrazolo[1,5-a]pyridine-3-carbonitrile]: the pIC50 was 9.29 on RET-CCDC6 (setting [3]); 8.76 at RET(V804M) mutant (setting [4]); 9.12 on wild-type RET kinase (setting [5]); 6.49 in experiment [1]; 9.29 in experiment [2].
On to `Cn1cc(-c2cc(-c3ccc(N4CCC(N=S(C)(C)=O)CC4)nc3)c3c(C#N)cnn3c2)cn1` [Ex. 16, 4-(6-(4-((dimethyloxo-λ^4-sulfinyl)amino)piperidin-1-yl)pyridin-3-yl)-6-(1-methyl-1H-pyrazole-4-yl)pyrazolo[1,5-a]pyridine-3-carbonitrile], for which the negative-log IC50 (pIC50) on RET-CCDC6 was 9.21; at RET(V804M) mutant it was 8.26; on wild-type RET kinase, 8.94; in experiment [1], 8.14; in experiment [2], 7.18.
Consider `Cn1cc(-c2cc(-c3ccc(N4CCC(N=[S@](C)(=O)c5ccccc5)CC4)nc3)c3c(C#N)cnn3c2)cn1` [Ex. 18, 4-(6-(4-(((R)—S-methyl-S-phenyl-oxo-λ^4-sulfinyl)amino)piperidin-1-yl)pyridin-3-yl)-6-(1-methyl-1H-pyrazole-4-yl)pyrazolo[1,5-a]pyridine-3-carbonitrile], for which the pIC50 was 9.30 at RET-CCDC6 (setting [3]); 8.33 on RET(V804M) mutant (setting [4]); 9.04 on wild-type RET kinase (setting [5]); 8.17 in experiment [1]; 8.15 in experiment [2].
As for `Cn1cc(-c2cn3ncc(C#N)c3c(-c3ccc(N4CCS(=N)(=O)CC4)nc3)n2)cn1` [Ex. 20, 4-(6-(1-imino-1-oxothiomorpholinyl)pyridin-3-yl)-6-(1-methyl-1H-pyrazole-4-yl)pyrazolo[1,5-a]pyrazine-3-carbonitrile], the negative logarithm of the IC50 (pIC50) on RET-CCDC6 was 9.17; on RET(V804M) mutant it was 8.10; at wild-type RET kinase it was 8.94; in experiment [1], 8.11; in experiment [2] it was 7.04.
As to `COc1ccc(CN=S2(=O)CCN(c3ccc(-c4nc(-c5cnn(C)c5)cn5ncc(C#N)c45)cn3)CC2)cn1` [Ex. 21, 4-(6-(1-(((6-methoxypyridin-3-yl)methyl)imino)-1-oxothiomorpholinyl)pyridin-3-yl)-6-(1-methyl-1H-pyrazole-4-yl)pyrazolo[1,5-a]pyrazine-3-carbonitrile], the pIC50 at RET-CCDC6 is 9.28; on RET(V804M) mutant, 8.11; on wild-type RET kinase it was 8.99; in experiment [1] it was 8.19; in experiment [2], 7.67.
Turning to `Cn1cc(-c2cn3ncc(C#N)c3c(-c3ccc(N4CCC(N=[S@](C)(=O)c5ccccc5)CC4)nc3)n2)cn1` [Ex. 25, 4-(6-(4-(((R)—S-methyl-S-phenyl-oxo-λ^4-sulfinyl)amino)piperidin-1-yl)pyridin-3-yl)-6-(1-methyl-1H-pyrazole-4-yl)pyrazolo[1,5-a]pyrazine-3-carbonitrile], the pIC50 was 8.94 at RET-CCDC6; 7.97 on RET(V804M) mutant; 8.69 at wild-type RET kinase; 8.03 in experiment [1]; 7.07 in experiment [2].
